Measured values: patent US6864396B2, “Substituted pentacene semiconductors” (3M Innovative Properties Company, priority 2001, dated 2005)

Assay type: physicochemical
Settings: for Weight %: solubility in THF, 25° C., calculated with extinction coefficient of pentacene
Method: The solubility of several alkyl substituted pentacenes in tetrahydrofuran (THF) was compared with that of pentacene. Samples were prepared by adding excess alkyl substituted pentacene compounder pentacene compound to newly opened THF and sonicating for 20-30 seconds to facilitate dissolution. All handling of the solutions and solvent was done in a nitrogen-purged environment. Solutions were transferred to a 1 cm cuvette with a disposable pipette. The cuvette was then placed in a spectrophotometer for 5 minutes for temperature equilibration (25° C.). Absorbance measurements were made using an Hewlett Packard 8453 photodiode array spectrophotometer over a range of wavelengths from 200 to 1100 nm. THF was used as a reference blank. All of the spectrographs were corrected for baseline differences, which possibly resulted from excess compound in suspension. In calculating the concentration and weight % values, the extinction coefficient of pentacene that is, 10^3.76 at 577 nm was used for all substituted pentacenes.

Concentration	Solubility in THF compared with pentacene, 2,9-dimethylpentacene, 2,10-dimethylpentacene, 2,9-didodecylpentacene	Weight %	Structure (SMILES)	Absorbance at 577 nm	Relative Absorbance
10.7 µM		7.38 × 10^−4 Weight %	CCCCCCCCCCCCc1ccc2cc3cc4cc5cc(CCCCCCCCCCCC)ccc5cc4cc3cc2c1 [2,9-didodecylpentacene, 2,9-Didodecylpentacene]	0.061	0.420
172 µM	significantly more soluble	8.62 × 10^−3 Weight %	CCCCCCc1ccc2cc3cc4cc5cc(CCCCCC)ccc5cc4cc3cc2c1 [2,9-dihexylpentacene, 2,9-Dihexylpentacene]	0.987	6.752
243 µM	significantly more soluble	1.45 × 10^−2 Weight %	CCCCCCCCCc1ccc2cc3cc4cc5cc(CCCCCCCCC)ccc5cc4cc3cc2c1 [2,9-dinonylpentacene, 2,9-Dinonylpentacene]	1.398	9.562

The next lines start with the compound.

Structure (SMILES)	Concentration	Solubility in THF compared with pentacene, 2,9-dimethylpentacene, 2,10-dimethylpentacene, 2,9-didodecylpentacene	Weight %	Absorbance at 577 nm	Relative Absorbance
CC(CCc1ccc2cc3cc4cc5cc(CCC(C)CC(C)(C)C)ccc5cc4cc3cc2c1)CC(C)(C)C (centres unmarked) [2,9-di(3,5,5-trimethylhexyl)pentacene, 2,9-Di(3,5,5-trimethylhexyl)pentacene]	3350 µM	significantly more soluble	2.00 × 10^−1 Weight %		
Cc1ccc2cc3cc4cc5cc(C)ccc5cc4cc3cc2c1 [2,9-dimethylpentacene, 2,9-Dimethylpentacene]	3.59 µM		1.64 × 10^−4 Weight %	0.021	0.142
Cc1ccc2cc3cc4cc5ccc(C)cc5cc4cc3cc2c1 [2,10-dimethylpentacene, 2,10-Dimethylpentacene]	6.06 µM		2.77 × 10^−4 Weight %	0.035	0.239
c1ccc2cc3cc4cc5ccccc5cc4cc3cc2c1 [pentacene]	25.4 µM		7.95 × 10^−4 Weight %	0.146	1.000
